Converted amounts (≈) assume the structure as drawn.
Legend:
[1] = system: rhinovirus type 64 (RV-64); assay: Tissue culture testing, rhinovirus type 64 in HeLa cells; assay type: cell-based; conditions: Enterovirus, 48 and 72 hours, NA = not active at the standard test conditions, read-out: RV-64: lowest concentration of the compound necessary to cause a 50 percent reduction in cytopathic effect
Experimental: (§1) Monolayered HeLa cells in 16 millimeter (mm) tissue culture dishes were treated with 1 ml of culture medium (Eagles medium supplemented with fetal calf serum) containing subject compound at an appropriate concentration or containing no compound at all. Culture media such as those described herein are more fully described in standard texts, as for example, Kuchler's Biochemical Methods in Cell Culture and Virology, Dowden, Hutchinson and Ross, Inc., Stroudsberg, PA (1977). Following treatment, cells were challenged with 0.05 ml of rhinovirus type 1A (RV-1A), rhinovirus type 2 (RV-2) or Coxsackie A21 virus (Cox A21) in culture medium. Some of the compounds were also tested against rhinovirus type 5 (RV-5), rhinovirus type 8 (RV-8) or rhinovirus type 64 (RV-64). Cell controls received no viruses.
(§2) ^2 Lowest concentration of the compound (μg/ml) necessary to cause

Cox A21 = assay: Single Oral Dose test in mice challenged IP with Cox A21; assay type: in vivo, Swiss male mice; conditions: >3.84 significant (95% confidence level)
Experimental: In addition, some of the compounds were tested in animals utilizing the following procedure, hereinafter referred to as the "Single Oral Dose" test. Swiss male mice, 8-12 grams in weight were challenged intraperitoneally (IP) with 0.2 ml of a normally lethal dose, i.e., a virus dose sufficient to cause […].80-100% mortality in infected animals within 10 days of challenge of Cox A21, in phosphate buffered saline containing 1% heat inactivated fetal calf serum. Three hours later mice were treated orally (P.O.) with 0.2 ml of compound suspended in 0.5% hydroxypropyl methylcellulose (Methocel) or with 0.2 ml of 0.5% Methocel containing no compound. […] Mice were observed daily for 7-10 days post-challenge and deaths recorded. A modified Mantel-Haenzel combined chi-square procedure was used to determine significant difference between virus control and treated groups. Chi-square values greater than 3.84 are considered significant (95% confidence level) in this test.

Coxsackie A21 virus = assay: Continuous Oral Feeding test in mice challenged IP with Coxsackie A21 virus; assay type: in vivo; conditions: for Continuous Oral Feeding X^2 (chi-square, deaths vs control): 0.06 % in diet, 240 h
Experimental: Some of the compounds were also tested in animals utilizing the following procedure, hereainafter referred to as the "Continuous Oral Feeding" test. Coxsackie A21 virus grown on HeLa cells was administered at a concentration that produces 80 to 100% deaths in mice weighing 8 to 12 grams within 10 days, when the mice are injected (IP) with 0.2 ml of virus preparation. Mice were placed on diets containing test compound dispersed in plain commercially available rodent mash chow at a concentration of 0.06% (weight percent) on day 0. On day 1 the mice were challenged with the virus preparation, 0.2 ml/mouse, (IP). Deaths in both control and experimental groups were recorded for the 10 days and the results analyzed by a chi-square (.chi.^2) test. Chi-square values greater than 3.84 indicate the compound is active (95% confidence level).

[2] = system: Coxsackie A21 virus (Cox A21); assay: Tissue culture testing, Coxsackie A21 virus in HeLa cells; assay type: cell-based; conditions: 48 and 72 hours, NA = not active at the standard test conditions, read-out: Cox A21: lowest concentration of the compound necessary to cause a 50 percent reduction in cytopathic effect
Experimental: as §1, §2

[3] = system: rhinovirus type 1A (RV-1A); assay: Tissue culture testing, rhinovirus type 1A in HeLa cells; assay type: cell-based; conditions: Enterovirus, 48 and 72 hours, NA = not active at the standard test conditions, read-out: RV-1A: lowest concentration of the compound necessary to cause a 50 percent reduction in cytopathic effect
Experimental: as §1, §2

[4] = Cytotoxicity in tissue culture testing (HeLa monolayers); assay type: cell-based; conditions: human; HeLa cells; observed at 48 and 72 hours post-treatment; read-out: Cytotoxicity: concentration of the compound found to be toxic to the cell
Experimental: as §1
^1 Cytotoxicity figures represent the concentration of the compound, […]

rhinovirus type 2 (RV-2) = assay: Tissue culture testing, rhinovirus type 2 in HeLa cells; assay type: cell-based; conditions: Enterovirus, 48 and 72 hours, NA = not active at the standard test conditions, read-out: RV-2: lowest concentration of the compound necessary to cause a 50 percent reduction in cytopathic effect
Experimental: as §1, §2

[5] = 600 mg/kg P.O. 3 h after IP challenge

| Compound | EC50 [1] | Single Oral Dose X^2 (chi-square, deaths vs virus control) (Cox A21; [5]) | Continuous Oral Feeding X^2 (chi-square, deaths vs control) (Coxsackie A21 virus) | EC50 [2] | EC50 [3] | MCC [4] | EC50 (rhinovirus type 2 (RV-2)) | Single Oral Dose X^2 (chi-square, deaths vs virus control) (Cox A21; 400 mg/kg P.O. 3 h after IP challenge) | Continuous Oral Feeding: toxicity of the test compound at the indicated dosage (Coxsackie A21 virus; 0.06% in diet, "toxic" = significantly toxic at the indicated dosage) |
| --- | --- | --- | --- | --- | --- | --- | --- | --- | --- |
| CS(=O)(=O)c1ccc(Oc2ccc(SC(F)(F)F)cc2)nc1 [Example 27, 5-(methylsulfonyl)-2-(4-((trifluoromethyl)thio)phenoxy)pyridine] | < 6.25 µg/mL | 39.700 | 29.753 | < 6.25 µg/mL | 12.5 µg/mL (≈ 35.8 µM) | ≥ 100 µg/mL | < 6.25 µg/mL | – | – |
| CS(=O)(=O)c1ccc(Oc2cccc(Br)c2)nc1 [Example 35, 2-(3-bromophenoxy)-5-(methylsulfonyl)pyridine] | 6.25 µg/mL (≈ 19 µM) | 1.604 | 0.197 | 50 µg/mL (≈ 152 µM) | < 6.25 µg/mL | > 100 µg/mL | 12.5 µg/mL (≈ 38.1 µM) | – | – |
| CS(=O)(=O)c1ccc(Oc2cccc(C#N)c2)nc1 [Example 36, 3-((5-(methylsulfonyl)-2-pyridinyl)oxy)benzonitrile] | 50 µg/mL (≈ 182 µM) | 2.20 | 3.447 | 50 µg/mL (≈ 182 µM) | 12.5 µg/mL (≈ 45.6 µM) | > 100 µg/mL | 50 µg/mL (≈ 182 µM) | – | – |
| CSc1ccc(Oc2ccc(Cl)c(Cl)c2)nc1 [Example 38, 2-(3,4-dichlorophenoxy)-5-(methylthio)pyridine] | – | 25.233 | – | 2.5 µg/mL (≈ 8.74 µM) | 1.25 µg/mL (≈ 4.37 µM) | 25 µg/mL | 2.5 µg/mL (≈ 8.74 µM) | – | – |
| C[S+]([O-])c1ccc(Oc2ccc(Cl)c(Cl)c2)nc1 (stereo not drawn) [Example 39, 2-(3,4-dichlorophenoxy)-5-(methylsulfinyl)pyridine] | 1.25 µg/mL (≈ 4.14 µM) | – | – | 25 µg/mL (≈ 82.7 µM) | 0.625 µg/mL (≈ 2.07 µM) | 25 µg/mL | 1.25 µg/mL (≈ 4.14 µM) | – | – |
| CCSc1ccc(Oc2ccc(Cl)c(Cl)c2)nc1 [Example 45, 2-(3,4-dichlorophenoxy)-5-(ethylthio)pyridine] | 5 µg/mL (≈ 16.7 µM) | – | – | 3.12 µg/mL (≈ 10.4 µM) | 2.5 µg/mL (≈ 8.33 µM) | 12.5 µg/mL | 2.5 µg/mL (≈ 8.33 µM) | – | – |
| CC[S+]([O-])c1ccc(Oc2ccc(Cl)c(Cl)c2)nc1 (stereo not drawn) [Example 46, 2-(3,4-dichlorophenoxy)-5-(ethylsulfinyl)pyridine] | 5 µg/mL (≈ 15.8 µM) | – | – | 12.5 µg/mL (≈ 39.5 µM) | < 3.12 µg/mL | 12.5 µg/mL | < 3.12 µg/mL | – | – |
| CC(C)S(=O)(=O)c1ccc(Oc2ccc(Cl)c(Cl)c2)nc1 [Example 49, 2-(3,4-dichlorophenoxy)-5-((1-methylethyl)sulfonyl)pyridine] | 0.625 µg/mL (≈ 1.81 µM) | – | 3.851 | 0.625 µg/mL (≈ 1.81 µM) | < 0.312 µg/mL | 12.5 µg/mL | 0.625 µg/mL (≈ 1.81 µM) | 0.004 | – |
| CC(C)S(=O)(=O)c1ccc(Oc2ccc(Br)cc2)nc1 [Example 50, 2-(4-bromophenoxy)-5-((1-methylethyl)sulfonyl)pyridine] | 2.5 µg/mL (≈ 7.02 µM) | 10.040 | 1.243 | 1.25 µg/mL (≈ 3.51 µM) | 1.25 µg/mL (≈ 3.51 µM) | 12.5 µg/mL | 1.25 µg/mL (≈ 3.51 µM) | – | – |
| CCCCCCS(=O)(=O)c1ccc(Oc2ccc(C(=O)c3ccccc3)cc2)nc1 [Example 55, (4-((5-(n-hexylsulfonyl)-2-pyridinyl)oxy)phenyl)phenylmethanone] | – | 0.190 | – | 3.12 µg/mL (≈ 7.38 µM) | 3.12 µg/mL (≈ 7.38 µM) | 12.5 µg/mL | 12.5 µg/mL (≈ 29.5 µM) | – | – |
| O=S(=O)(c1ccccc1)c1ccc(Oc2ccc(Cl)c(Cl)c2)nc1 [Example 60, 2-(3,4-dichlorophenoxy)-5-(phenylsulfonyl)pyridine] | – | 0.839 | 0.970 | 10 µg/mL (≈ 26.3 µM) | 5 µg/mL (≈ 13.1 µM) | ≥ 100 µg/mL | 10 µg/mL (≈ 26.3 µM) | – | – |
| O=S(=O)(c1ccccc1)c1ccc(Oc2ccc(Br)cc2)nc1 [Example 61, 2-(4-bromophenoxy)-5-(phenylsulfonyl)pyridine] | – | 4.401 | 3.328 | 5 µg/mL (≈ 12.8 µM) | 10 µg/mL (≈ 25.6 µM) | 20 µg/mL | 10 µg/mL (≈ 25.6 µM) | – | – |
| O=S(=O)(Cc1ccccc1)c1ccc(Oc2ccc(Cl)c(Cl)c2)nc1 [Example 63, 2-(3,4-dichlorophenoxy)-5-((phenylmethyl)sulfonyl)pyridine] | – | 0.733 | 4.106 | 10 µg/mL (≈ 25.4 µM) | 5 µg/mL (≈ 12.7 µM) | 25 µg/mL | 10 µg/mL (≈ 25.4 µM) | – | – |
| O=S(=O)(Cc1ccccc1)c1ccc(Oc2ccc(Br)cc2)nc1 [Example 64, 2-(4-bromophenoxy)-5-((phenylmethyl)sulfonyl)pyridine] | – | 0.483 | 2.985 | – | – | ≥ 100 µg/mL | 50 µg/mL (≈ 124 µM) | – | – |
| CS(=O)(=O)c1cccc(Oc2ccc(Cl)c(Cl)c2)n1 [Example 67, 2-(3,4-dichlorophenoxy)-6-(methylsulfonyl)pyridine] | – | – | 7.39 | ~50 µg/mL (≈ 157 µM) | 3.12 µg/mL (≈ 9.82 µM) | 50 µg/mL | 12.5 µg/mL (≈ 39.3 µM) | – | toxic |
| CS(=O)(=O)c1cccc(Oc2ccc(C(=O)c3ccccc3)cc2)n1 [Example 68] | – | 0.362 | 0.680 | 6.25 µg/mL (≈ 17.7 µM) | 6.25 µg/mL (≈ 17.7 µM) | 12.5 µg/mL | 6.25 µg/mL (≈ 17.7 µM) | – | – |
| CS(=O)(=O)c1cccc(Oc2ccc(Cc3ccccc3)cc2)n1 [Example 69, 2-(methylsulfonyl)-6-(4-(phenylmethyl)phenoxy)pyridine] | – | 3.510 | 0.776 | – | 0.625 µg/mL (≈ 1.84 µM) | 5 µg/mL | 2.5 µg/mL (≈ 7.37 µM) | – | – |

— patent publication US4371537A, “Sulfur-substituted phenoxypyridines having antiviral activity” (The Dow Chemical Company, priority 1981, dated 1983)
